# What was measured:
# M010B (Human glioma) = test: Cytotoxicity testing (MTS) on M010B; assay type: cell-based
# Method: (§1) Cell lines used were A549 (Human lung carcinoma), HeLa (Human cervical carcinoma), MCF-7 (Human mammary gland adenocarcinoma), CEM (Human T-lymphoblastoid from ALL (Acute lymphoblastic leukemia)), M010B (Human glioma), M006X (Human glioma) and Jurkat (Human T-cell leukemia).
# (§2) A series of dilutions were prepared and a wavelength scan of the diluted solution was used to determine the wavelength of maximum absorbance for each compound. Five standardized drug concentrations were scanned at this pre-determined wavelength to obtain an estimate of the compound's extinction coefficient.
# (§3) A primary MTS assay was used to test the optimal number of cells for cytotoxicity assays. Cells were trypsinized, counted and introduced into seven lanes of a 96-well plate at different cell numbers (eight replicates per lane). Optimal cell numbers were determined after 72 and 96 hours of growth and were used in subsequent cytotoxicity assays. […] Cell viability was determined using the Cell Titer 96 AQueous One Solution Cell Proliferation Assay (Promega, U.S.A.).
# (§4) Fits were performed using a dose-response model ideal for data showing an initial response plateau, a transition region, and a final response plateau.
# (§5) [formula] […] Itop is the response obtained at very low/no drug concentration. The data and all parameters were normalized to Itop−Ibot, a measure of the maximum effect of the drug.
# [1] = test system: HeLa (Human cervical carcinoma); test: Cytotoxicity testing (MTS) on HeLa; assay type: cell-based
# Method: as §1, §2, §3, §4, §5
# [2] = test system: CEM (Human T-lymphoblastoid from ALL); test: Cytotoxicity testing (MTS) on CEM; assay type: cell-based
# Method: as §1, §2, §3, §4, §5
# [3] = test system: MCF-7 (Human mammary gland adenocarcinoma); test: Cytotoxicity testing (MTS) on MCF-7; assay type: cell-based
# Method: as §1, §2, §3, §4, §5
# M006X (Human glioma) = test: Cytotoxicity testing (MTS) on M006X; assay type: cell-based
# Method: as §1, §2, §3, §4, §5
# [4] = test system: A549 (Human lung carcinoma); test: Cytotoxicity testing (MTS) on A549; assay type: cell-based
# Method: as §1, §2, §3, §4, §5
# [5] = test system: A549, HeLa, MCF-7 and CEM cell lines; test: Cytotoxicity, mean over A549, HeLa, MCF-7 and CEM cell lines; settings: for IC50 [log10 M] (mean logIC50): mean over A549, HeLa, MCF-7 and CEM cell lines; for average IC50 values compared with colchicine: average values of Table 3; for cytotoxicity compared with colchicine: cytotoxicity assays
# Excerpt: as §1, §3, §5
# Cytotoxicity screening was performed on a number of cell lines based on the cancer of origin and differing morphologies.
SMILES,Fraction of cells that survive at the highest drug concentrations (Ibot) (M010B (Human glioma)),Fraction of cells that survive at the highest drug concentrations (Ibot) [1],Fraction of cells that survive at the highest drug concentrations (Ibot) [2],Fraction of cells that survive at the highest drug concentrations (Ibot) [3],Fraction of cells that survive at the highest drug concentrations (Ibot) (M006X (Human glioma)),Fraction of cells that survive at the highest drug concentrations (Ibot) [4],IC50 [log10 M] (mean logIC50) [5],logIC50 [1] [log10 M],logIC50 [2] [log10 M],logIC50 [3] [log10 M],logIC50 [4] [log10 M],logIC50 (M010B (Human glioma)) [log10 M],logIC50 (M006X (Human glioma)) [log10 M],average IC50 values compared with colchicine [5],cytotoxicity compared with colchicine [5],"IC50 ([5]; cytotoxicity experiments, most potent derivative) [nM]"
"COc1cc2c(c(OC)c1OC)-c1ccc(OC)c(=O)cc1[C@@H](NC(C)=O)CC2 [Colchicine, N-[(7S)-1,2,3,10-tetramethoxy-9-oxo-5,6,7,9-tetrahydrobenzo[α]heptalen-7-yl]acetamide, reference compound]",0.107 ± 0.017,0.061 ± 0.048,0.016 ± 0.021,0.377 ± 0.010,0.026 ± 0.005,0.118 ± 0.042,,,,,,,,,,
"COc1cc2c(c(OC(C)=O)c1OC)-c1ccc(OC)c(=O)cc1[C@@H](NC(C)=O)CC2 [Compound 2, N-[(7S)-2,3,10-trimethoxy-1-((methyl)carbonyloxy)-9-oxo-5,6,7,9-tetrahydrobenzo[α]heptalen-7-yl]acetamide]",,0.074 ± 0.031,0.027 ± 0.021,0.424 ± 0.019,,0.283 ± 0.022,−6.34 ± 0.09,−6.48 ± 0.13,−6.65 ± 0.08,−6.32 ± 0.10,−5.89 ± 0.06,,,,,
"COc1cc2c(c(O)c1OC)-c1ccc(OC)c(=O)cc1[C@@H](NC(C)=O)CC2 [Compound 3, N-[(7S)-1-hydroxy-2,3,10-trimethoxy-9-oxo-5,6,7,9-tetrahydrobenzo[α]heptalen-7-yl]acetamide]",,,,0.518 ± 0.033,,0.235 ± 0.048,,,,−5.25 ± 0.10,−5.29 ± 0.11,,,,,
"CCC(=O)Oc1c(OC)c(OC)cc2c1-c1ccc(OC)c(=O)cc1[C@@H](NC(C)=O)CC2 [Compound 4, N-[(7S)-1-((ethyl)carbonyloxy)-2,3,10-trimethoxy-9-oxo-5,6,7,9-tetrahydrobenzo[α]heptalen-7-yl]cetamide]",,0.058 ± 0.048,−0.031 ± 0.049,0.399 ± 0.021,,0.332 ± 0.028,−5.27 ± 0.09,−5.41 ± 0.13,−5.39 ± 0.11,−5.23 ± 0.07,−5.07 ± 0.04,,,,,
"COc1cc2c(c(OC(=O)C(C)C)c1OC)-c1ccc(OC)c(=O)cc1[C@@H](NC(C)=O)CC2 [Compound 5, N-[(7S)-1-(((methyl)ethyl)carbonyloxy)-2,3,10-trimethoxy-9-oxo-5,6,7,9-tetrahydrobenzo [α]heptalen-7-yl]acetamide]",0.258 ± 0.024,0.025 ± 0.044,−0.003 ± 0.048,0.451 ± 0.025,0.031 ± 0.018,0.265 ± 0.043,−5.33 ± 0.10,−5.46 ± 0.13,−5.51 ± 0.13,−5.25 ± 0.08,−5.09 ± 0.06,−5.22 ± 0.06,−6.12 ± 0.04,,,
"COc1cc2c(c(OC(C)C)c1OC)-c1ccc(OC)c(=O)cc1[C@@H](NC(C)=O)CC2 [Compound 7, N-[(7S)-1-(ethoxy-1-methyl)-2,3,10-trimethoxy-9-oxo-5,6,7,9-tetrahydrobenzo[α]heptalen-7-yl]acetamide]",,0.066 ± 0.022,0.000 ± 0.014,0.464 ± 0.009,,0.229 ± 0.014,−8.12 ± 0.08,−8.25 ± 0.09,−8.49 ± 0.10,−8.10 ± 0.05,−7.66 ± 0.08,,,stronger than colchicine,moderately better than colchicine,
"COc1cc2c(c(OCC(C)C)c1OC)-c1ccc(OC)c(=O)cc1[C@@H](NC(C)=O)CC2 [Compound 7a, N-[(7S)-2,3,10-trimethoxy-1-(2-methylpropoxy)-9-oxo-5,6,7,9-tetrahydrobenzo[α]heptalen-7-yl]acetamide]",0.239 ± 0.031,0.051 ± 0.032,0.022 ± 0.020,0.406 ± 0.014,0.197 ± 0.024,0.222 ± 0.026,−6.53 ± 0.10,−6.66 ± 0.11,−6.76 ± 0.08,−6.17 ± 0.06,−6.52 ± 0.13,−6.60 ± 0.14,−7.12 ± 0.06,,moderately better than colchicine,
"CCCOc1c(OC)c(OC)cc2c1-c1ccc(OC)c(=O)cc1[C@@H](NC(C)=O)CC2 [Compound 8, N-[(7S)-2,3,10-trimethoxy-9-oxo-1-(propanoxy)-5,6,7,9-tetrahydrobenzo[α]heptalen-7-yl]acetamide]",0.181 ± 0.020,0.044 ± 0.020,0.000 ± 0.013,0.433 ± 0.013,0.072 ± 0.014,0.246 ± 0.013,−7.86 ± 0.10,−7.68 ± 0.09,−8.48 ± 0.10,−7.50 ± 0.12,−7.80 ± 0.07,−7.49 ± 0.13,−7.98 ± 0.03,,moderately better than colchicine,
"COc1c(O)cc2c(c1OC)-c1ccc(SC)c(=O)cc1[C@@H](NC(C)=O)CC2 [Compound 40, N-[(7S)-3-hydroxy-1,2-dimethoxy-3-hydroxy-10-methylsulfanyl-9-oxo-5,6,7,9-tetrahydrobenzo[α]heptalen-7-yl]acetamide]",,,,,,,,,,,,,,,consistently the most effective,
"C=CCOc1cc2c(c(OC)c1OC)-c1ccc(SC)c(=O)cc1[C@@H](NC(C)=O)CC2 [Compound 41, N-[(7S)-1,2-dimethoxy-10-methylsulfanyl-9-oxo-3-(prop(2-en)oxy)-5,6,7,9-tetrahydrobenzo[α]heptalen-7-yl]acetamide]",,0.039 ± 0.016,−0.050 ± 0.022,0.472 ± 0.016,,0.243 ± 0.012,−8.39 ± 0.11,−8.45 ± 0.11,−8.29 ± 0.10,−8.31 ± 0.12,−8.50 ± 0.11,,,stronger than colchicine,,
"CCCOc1cc2c(c(OC)c1OC)-c1ccc(SC)c(=O)cc1[C@@H](NC(C)=O)CC2 [Compound 43, N-[(7S)-3-propoxy-1,2-dimethoxy-10-methylsulfanyl-9-oxo-5,6,7,9-tetrahydrobenzo[α]heptalen-7-yl]acetamide]",0.214 ± 0.022,0.025 ± 0.025,0.010 ± 0.014,0.399 ± 0.015,,0.198 ± 0.024,−8.67 ± 0.11,−8.66 ± 0.12,−8.55 ± 0.09,−8.71 ± 0.10,−8.76 ± 0.11,−8.51 ± 0.15,,stronger than colchicine,consistently the most effective,2.13 ± 0.77
COc1c(O)cc2c(c1OC)-c1ccc(OC)c(=O)cc1[C@@H](NC(C)=O)CC2 [Compound 50],,,,,,,,,,,,,,,consistently the most effective,

# Reference: patent US9458101B2 (priority 2009, dated 2016)
